Article PMC5748856 (The Journal of Experimental Medicine, 2018)
Entries after “also recorded” stand apart in the source; their conditions may differ. Ends that are not written are not given here.

Columns and labels:
purified HLA-A*02:01 = purified HLA-A*02:01 (Homo sapiens, UniProt P04439, D140Y/D185E/D98H/E176V/E277Q/G131W/G231S/I119V/I121R/I166T/I218V/L300P/L318F/N151K/N90K/P208A/P217A/Q86G/Q94H/R138H/R169H/T345S); conditions: for HLA-A*02:01 binding (in words): relative to H3.3K27M, cell-free binding assay, performed once (Fig. 4 A)
HLA-A*02:03 (human) = assay: radioligand binding

Row | Molecule | HLA-A*02:01 binding (in words) (purified HLA-A*02:01) | also measured
1 | RKSAPSTGGV [H3.3WT, reference compound] | – | IC50 (purified HLA-A*02:01): > 38700 nM
2 | RMSAPATGGV [A6] | abrogated; also recorded: diminished | –
3 | XMSAPSTGGV [Cit H3.3] | partially retains its affinity | –
4 | RMSAPSTGGV [H3.3K27M_(26–35) peptide] | – | IC50 (HLA-A*02:03 (human)): 747 nM
